Where two headings read alike, the source gives them in different places. Where only a bound is given, the exact number is not on record here.

Test [1] deals with mMcl-1 (Mus musculus, UniProt P97287). Put plainly: 1H,15N HSQC NMR titration, Mcl-1. The test is classed as binding. Conditions: Mcl-1 Kd by 1H,15N HSQC NMR (N).
In test [2] the target is hMcl-1 (Homo sapiens, UniProt Q07820). In words: FP assay, displacement of F-Puma from hMcl-1. The test is classed as binding.
For test [3], the target named is double His-TEV-hMcl-1 (Homo sapiens, UniProt Q07820). Put plainly: SPR direct binding, Mcl-1.
Test [4] deals with hBcl-2 (Homo sapiens, UniProt P10415). In words: FP assay, displacement of F-Puma from hBcl-2. The test is classed as binding.
Test [5] has as its target Unmodified human Bcl-2 residues 1-207 (hBcl-2) (human, UniProt P10415 1-207). In words: fluorescence polarisation. On the technique in general: In fluorescence polarisation assays a small probe gives low polarisation when free and higher when bound to something large.
Setting [6] is: read-out: Bcl-2 eKi, FP assay, NM = not measurable at top concentration (2.5 mM or solubility limit).

Chain of hBcl-2 (P10415 1-207): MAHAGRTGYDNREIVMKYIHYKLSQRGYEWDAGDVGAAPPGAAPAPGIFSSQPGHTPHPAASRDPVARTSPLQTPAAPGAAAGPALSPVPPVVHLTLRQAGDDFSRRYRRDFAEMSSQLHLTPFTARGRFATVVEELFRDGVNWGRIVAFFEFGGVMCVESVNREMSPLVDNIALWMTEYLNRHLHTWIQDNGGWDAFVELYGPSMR
Chain of hMcl-1 (Q07820 171-327 limits assumed): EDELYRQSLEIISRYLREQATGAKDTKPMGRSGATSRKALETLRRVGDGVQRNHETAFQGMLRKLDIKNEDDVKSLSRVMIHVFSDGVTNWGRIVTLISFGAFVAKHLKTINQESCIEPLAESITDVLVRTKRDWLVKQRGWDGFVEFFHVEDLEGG
Chain of mMcl-1 (P97287 152-308 limits assumed): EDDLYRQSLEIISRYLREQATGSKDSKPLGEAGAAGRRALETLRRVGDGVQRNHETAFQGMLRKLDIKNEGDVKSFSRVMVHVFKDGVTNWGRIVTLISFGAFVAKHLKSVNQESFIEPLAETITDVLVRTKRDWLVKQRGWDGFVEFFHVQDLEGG
Chain of double His-TEV-hMcl-1 (Q07820 171-327 limits assumed): as the sequence (Q07820 171-327 limits assumed) above
Chain of Unmodified human Bcl-2 residues 1-207 (hBcl-2) (P10415 1-207): as the sequence (P10415 1-207) above

In the case of `O=C(O)c1nc(C2COc3ccccc3O2)sc1Cc1ccccc1` (stereo not drawn) [Compound 22], the Kd (in general, the constant that tells how readily two partners part at equilibrium) is 85 µM in test [1] and 140 µM in test [3]. In addition, the Ki was 40 µM in test [2] and 80 µM in test [4].

`O=C(O)c1csc(C2CNc3ccccc3O2)n1` (stereo not drawn) [Compound 23] yielded a Kd in test [1] of 360 µM. Also, the Ki in test [2] is 500 µM; in test [4] (setting [6]) it was over 2500 µM.

`CCN1CC(c2nc(C(=O)O)cs2)Oc2ccccc21` (stereo not drawn) [Compound 24]: binding in test [1] was characterised by a dissociation constant (Kd) of 220 µM. Also, the figures for the Ki in test [2] and in test [4] were 20 µM and 500 µM, respectively.

For `O=C(O)c1csc(C2CN(Cc3ccccc3)c3ccccc3O2)n1` (stereo not drawn) [Compound 25], the figures for the Kd in test [1] and in test [3] were 40 µM and 450 µM, respectively. Further, the Ki in test [2] stood at 40 µM; in test [4], 800 µM.

In turn, `O=C(O)c1csc([C@H]2CN(Cc3ccccc3)c3ccccc3O2)n1` [Compound 26] displayed a Kd in test [1] of 110 µM. Besides, the Ki in test [2] was 30 µM; in test [4] (setting [6]), over 2500 µM.

Molecule `O=C(O)c1csc([C@@H]2CN(Cc3ccccc3)c3ccccc3O2)n1` [Compound 27] showed a Kd in test [1] of 140 µM. Further, the Ki in test [2] was 40 µM; in test [4] (setting [6]) it was over 2500 µM.

For the molecule RGEEEQWAREIGAQLRRMADDLN [Puma peptide], in test [5], the binding result is reported as “binds”.

For the origin of these results see PMC6648477 (ACS Omega, 2019).
